The source of these data is US20240335548A1, “MACROMOLECULES” (Starpharma Pty Ltd, priority 2011, published 2024).

The nature of series [1]: Pharmacokinetic analysis, plasma half-life after IV administration. Conditions: rat, plasma, iv.
Protocol: The plasma half-lives of tritium labelled docetaxel and the construct from Experiment 8 (c) (prepared using tritium labelled docetaxel) after IV administration into rats were determined (Kaminskas, L. M., Boyd, B. J., Karellas, P., Krippner, G. Y., Lessene, R., Kelly, B and Porter, C. J. H. “The Impact of Molecular Weight and PEG Chain Length on the Systemic Pharmacokinetics of PEGylated Poly-L-Lysine Dendrimers” Molecular Pharm. 2008, 5, 449-463).
For series [2] the following is noted: day 16, one day after final dose. Here is the method: The 20 mice were randomised into 5 groups of four mice (mean tumour volume ˜90 mm^3). Animals were eye bled in the morning for baseline blood cell counts and then drug dosing commenced later that day (day 1). […] A second eye bleed was performed on day 11 (Table 7 A-C). Mice were killed one day following the final drug dose (day 16).

Another series deals with MDA-MB-231 (Breast). The series is described as follows: Cell growth inhibition SRB assay. It counts as cell-based. Conditions: Homo sapiens; MDA-MB-231; 72 hours; equivalent drug loading; average of duplicate. The method, then: (§1) All solutions were prepared in saline (except docetaxel which was made in ethanol). All solutions were stored at −20° C. All values were based on the equivalent drug loading.
In general terms: In SRB staining, fixed cells bind dye roughly in proportion to their protein.

The subject of the next series is HT29 (Colon). Briefly: Cell growth inhibition SRB assay. The format is cell-based. The conditions noted are these: Homo sapiens, HT-29; HT29; 72 hours; equivalent drug loading; average of duplicate. The method, then: as §1
The subject of another series is ES2 (Ovarian). The series is described as follows: Cell growth inhibition SRB assay. The conditions noted are these: ES2; 72 hours; equivalent drug loading; average of duplicate. The format is cell-based. The method, then:
as §1

Another series relates to HCT116 (Colon). Briefly: Cell growth inhibition SRB assay. The format is cell-based. Conditions: Homo sapiens, HCT-116; HCT116; 72 hours; equivalent drug loading; average of duplicate. Here is the method:
as §1

Another series concerns H460 (Lung). The series is described as follows: Cell growth inhibition SRB assay. It counts as cell-based. The conditions noted are these: Homo sapiens, NCI-H460; H460; 72 hours; equivalent drug loading; average of duplicate. Here is the method:
as §1

A further series concerns MCAS (Ovarian). The series is described as follows: Cell growth inhibition SRB assay. It counts as cell-based. The conditions noted are these: MCAS; 72 hours; equivalent drug loading; average of duplicate. Here is the method:
as §1

The next series deals with DU145 (Prostate). Briefly: Cell growth inhibition SRB assay. It counts as cell-based. Conditions: Homo sapiens, DU-145; DU145; 72 hours; equivalent drug loading; average of duplicate. Here is the method:
as §1

The next series relates to PC-3 (Prostate). Briefly: Cell growth inhibition SRB assay. The format is cell-based. Conditions: PC-3; 72 hours; equivalent drug loading; average of duplicate. Here is the method:
as §1

The next series deals with A549 (Lung). Briefly: Cell growth inhibition SRB assay. The format is cell-based. The conditions noted are these: Homo sapiens; A549; 72 hours; equivalent drug loading; average of duplicate. Here is the method: as §1
The next series deals with A2058 (Melanoma). Briefly: Cell growth inhibition SRB assay. The conditions noted are these: Homo sapiens; A2058; 72 hours; equivalent drug loading; average of duplicate. It counts as cell-based. Here is the method: as §1
For the next series, the system named is MDA-MB-231 tumours. The series is described as follows: Xenograft MDA-MB-231 efficacy study. The format is in vivo, female Balb/c nude mice.
Series [3] is described as follows: Maximum tolerated dose (MTD) study. The format is in vivo, female Balb/c mice. The conditions noted are these: intravenous once weekly for 3 weeks (day 1, 8 and 15). Here is the method: Groups of female Balb/c mice were administered an intravenous injection of dendrimer (0.1 ml/10 g body weight) or docetaxel (0.05 ml/10 g body weight) once weekly for 3 weeks (day 1, 8 and 15). Mice were weighed daily and watched for signs of toxicity. Animals were monitored for up to 10 days following the final drug dose. Any mice exceeding ethical endpoints (≥20% body weight loss, poor general health) were immediately sacrificed and observations were noted. […] More than twice the dose of docetaxel could be safely administered using drug dendrimer construct compared to docetaxel alone.

For series [4] the following is noted: free drug, footnote of Table 1; cited from earlier work.

Molecules are shown by their SMILES.

As usually defined, the half-life is the time needed for the level to fall by half in the phase considered. Read a high half-life as slow loss. What is called GI50 is the concentration at which growth is held to half of that of the control.

As to `CC(=O)O[C@@]12CO[C@@H]1C[C@H](O)[C@@]1(C)C(=O)[C@H](O)C3=C(C)[C@@H](OC(=O)[C@H](O)[C@@H](NC(=O)OC(C)(C)C)c4ccccc4)C[C@@](O)([C@@H](OC(=O)c4ccccc4)[C@H]21)C3(C)C` [Docetaxel, reference compound], the half-life in series [1] is < 1 h. In addition, the “Mean Tumour Weights (g) (sd)” value in series [2] amounted to 0.048 g. Also, the GI50 in the series on MDA-MB-231 (Breast) amounted to 3.5 nM; with HT29 (Colon), 1.5 nM; in the series on ES2 (Ovarian), 5 nM; in the series on HCT116 (Colon) it was 0.7 nM; in the series on H460 (Lung), 1.5 nM; with MCAS (Ovarian), 7 nM. The GI50 is 2.5 nM in the series with DU145 (Prostate), 2.5 nM with PC-3 (Prostate), 3.5 nM in the series on A549 (Lung) and 2 nM in the series on A2058 (Melanoma). In addition, the “Mean tumour Volumne mm^3 (sd)” value in the series with MDA-MB-231 tumours (Day 1, i.v. day 1, 8, 15, docetaxel 15 mg/kg, Exp 3 (b) 20 mg/kg, Exp 8 (c) […] mg/kg) is listed as 111.94 (6.41), mm^3; in the series with MDA-MB-231 tumours (Day 9, same doses), 135.57 (18.85), mm^3; with MDA-MB-231 tumours (Day 19, same doses) it was 49.92 (11.61), mm^3; in the series on MDA-MB-231 tumours (Day 29, same doses) it was 18.81 (2.09), mm^3; in the series with MDA-MB-231 tumours (Day 40, same doses) it was 10.75 (1.95), mm^3; with MDA-MB-231 tumours (Day 61, same doses), 95.94 (33.08), mm^3. Further, the “Mean tumour Volumne mm^3 (sd)” value is given as 478.67 (169.27), mm^3 in the series with MDA-MB-231 tumours (Day 81, same doses) and 974.83 (302.59), mm^3 in the series with MDA-MB-231 tumours (Day 100, same doses). The Tolerated dose in series [3] is 15 mg/kg docetaxel equivalents. The “solubility of the drug in water” value in series [4] was “The solubility of docetaxel and in water is 5 μg/mL”.
